Results reported in PMC9797592, “TJ-M2010-5, a novel CNS drug candidate, attenuates acute cerebral ischemia-reperfusion injury through the MyD88/NF-κB and ERK pathway” (Frontiers in Pharmacology, 2022).

How the values were obtained:
CIRI mice [1] = assay: MCAO cerebral ischemia-reperfusion injury model: neurological deficit score and TTC infarct volume; format: in vivo, C57BL/6 mice
Experimental: Male C57BL/6 mice (Beijing Vital River Laboratory Animal Technology Co. Ltd., Beijing, China) weighing 22–28 g and aged 8–10 weeks were used. All animal experiments were approved by the Institutional Animal Care and Use Committee of Tongji Hospital (Wuhan, China). All procedures were performed in accordance with specific pathogen-free standards. Mice were randomly divided into the following seven groups: sham, I/R, vehicle (I/R + saline), I/R + TJ-5 (5 mg/kg), I/R + TJ-5 (10 mg/kg), I/R + TJ-5 (15 mg/kg), and I/R + edaravone (3 mg/kg).
The mice were anesthetized with 1% pentobarbital sodium solution via intraperitoneal injection, and the body temperature was maintained at 37.0°C–37.5°C. The middle cerebral artery occlusion (MCAO) model was established according to the Longa method, as described previously ([Longa et al., 1989]). In brief, the right carotid artery was carefully separated and exposed. A silicon-coated embolic suture (Doccol, United States) was inserted slowly from the external carotid artery (ECA) into the internal carotid artery (ICA) until it reached the middle cerebral artery (MCA). After 1 h of ischemia, the embolic suture was withdrawn. The surgical procedure in the sham group was the same as that in the I/R group, but the MCA was not obstructed.
After 24 h of reperfusion, each group of mice was scored blindly, according to the scoring system of the Longa method ([Longa et al., 1989]). The score was 0 for no obvious neurological deficit, one for inability to fully extend the left forelimb, two for turning to the left, three for leaning to the left while walking, and four for the inability to walk spontaneously and impaired consciousness.
The mice were sacrificed 24 h after I/R. Mouse brains were harvested for the measurement of cerebral infarct volume. The brains were frozen at −80°C for 5 min and cut into five 2-mm thick slices. The slices were then placed in a small dish, 2% 2,3,5-triphenyltetrazolium chloride (TTC) solution (Sigma, United States) was added, and 4% paraformaldehyde was used for fixation. Images were captured using a digital camera. ImageJ software was used to measure the volume of the brain infarction.

CIRI mice [2] = assay: Immunofluorescence staining (NeuN, TUNEL, Iba-1) of brain slices of CIRI mice; format: in vivo, C57BL/6 mice
Experimental: As mentioned previously, immunofluorescence staining was performed on paraffin-embedded brain slices ([Ye et al., 2020]). After standard histological procedures, the slices were treated with the TUNEL (terminal deoxynucleotidyl transferase dUTP nick end labeling) reaction mixture to detect apoptosis according to the manufacturer’s protocol (Roche, Germany). Furthermore, the slices were used for immunofluorescence with rabbit anti-NeuN antibody (1:300, CST) and rabbit anti-Iba-1 antibody (1:500, CST). After incubating overnight at 4°C, goat anti-rabbit IgG (1:1000) secondary antibodies were applied, and the brain slices were incubated for 2 h at room temperature. Finally, the slices were washed and labeled with 4′,6-diamidino-2-phenylindole for 10 min at room temperature. Images were captured using a fluorescence microscope.

CIRI mice [3] = assay: RT-qPCR and ELISA of inflammatory factors in the brain of CIRI mice; format: in vivo, C57BL/6 mice; settings: TJ-5 15 mg/kg i.v. after 1 h ischemia
Experimental: Total mRNA was extracted from the brain cortex using TRIzol reagent and reverse-transcribed into cDNA using the PrimeScript™ RT reagent kit (Takara, Japan), following the manufacturer’s instructions. RT-qPCR was performed using SYBR Green Real-time PCR Master Mix (Takara, Japan) with the Step One System (Life Technologies). The results were expressed as fold change from the untreated control and analyzed using the 2^−ΔΔCt method. The primers were as follows (5′–3′): MyD88 forward: TTTATCTGCTACTGCCCCAACG, reverse: GCGGCGACACCTTTTCTCA; TLR4 forward: ATGCTGCAACTGATGTTCCTTC, reverse: GATGTTAGACCTTTCTTCCTCCC; GAPDH forward: TGTTCCTACCCCCAATGTGTCC, reverse: GGAGTTGCTGTTGAAGTCGCAG; TNF-α forward: ATGGCCTCCCTCTCATCAGT, reverse: TGGTTTGCTACGACGTGGG; IL-6 forward: AGTGGCTAAGGACCAAGAC, reverse: ATAACGCACTAGGTTTGCCGA; iNOS forward: ATTCACAGCTCATCCGGTACG, reverse: GGATCTTGACCATCAGCTTGC; IL-1β forward: GCACTACAGGCTCCGAGATGAA, reverse: GTCGTTGCTTGGTTCTCCTTGT.
Enzyme-linked immunosorbent assay (ELISA) kits were used to detect the levels of TNF-α, IL-1β, and IL-6 in the brain. Brain tissue was homogenized in 1 ml of phosphate-buffered saline using a tissue homogenizer. […] BV-2 cells were incubated with different treatments and the supernatants were collected and measured.

[4] = system: LPS-stimulated BV-2 cells; assay: LPS-stimulated BV-2 cell model: morphology and TNF-α/IL-6 ELISA; format: cell-based
Experimental: BV-2 microglial and SH-SY5Y cells were cultured as previously described ([Zhao et al., 2020]). A lipopolysaccharide (LPS)-stimulated BV-2 cell model was established to mimic severe neuroinflammation induced by multiple inflammatory mediators after reperfusion ([Li et al., 2021]). BV-2 cells were pretreated with different concentrations of TJ-5 for 2 h before LPS (1 μg/ml) stimulation (#L2880, Sigma, United States). Twenty-4 hours later, BV-2 cells and the culture supernatants were harvested for subsequent experiments. In addition, ST2825, a recognized MyD88 inhibitor, was used as positive control group.
Enzyme-linked immunosorbent assay (ELISA) kits were used to detect the levels of TNF-α, IL-1β, and IL-6 in the brain. Brain tissue was homogenized in 1 ml of phosphate-buffered saline using a tissue homogenizer. Then, the homogenates were centrifuged at 14,000 g for 10 min at 4 °C. The supernatant was immediately transferred for measurement following the manufacturer’s instructions. BV-2 cells were incubated with different treatments and the supernatants were collected and measured.

[5] = system: OGD/R-induced SH-SY5Y cells; assay: OGD/R-induced SH-SY5Y cell apoptosis, Annexin V/PI flow cytometry; format: cell-based; settings: OGD 4 h / R 24 h with TJ-5
Experimental: The oxygen glucose deprivation/reoxygenation (OGD/R)-induced SH-SY5Y cell model was established to mimic CIRI as previously described ([Dong et al., 2021]). Briefly, SH-SY5Y cells were cultured in glucose-free Dulbecco’s Modified Eagle Medium, and the flasks were placed inside an incubator (1% O2, 94% N2, 5% CO2) for 4 h. OGD cells were then incubated in standard culture conditions with or without TJ-5 for 24 h of reperfusion. OGD 4 h/R 24 h SH-SY5Y cells were harvested, and the Annexin V/PI Apoptosis Kit (Multi- Science Biotech, China) was used to detect apoptosis by flow cytometry.

## O=C(CCN1CCN(Cc2ccccc2)CC1)Nc1nc(-c2ccccc2)cs1 [TJ-5]
CIRI mice [1]; TJ-5 15 mg/kg i.v. at 1 h of ischemia, 24 h reperfusion, TTC, I/R group 34.24%
  percentage of infarct volume: 8.47%
CIRI mice [1]; TJ-5 15 mg/kg vs I/R group, 24 h reperfusion, Longa score
  neurological deficit score: significantly lower
CIRI mice [1]; intravenous TJ-5 at 4 h reperfusion, TTC at 24 h after reperfusion
  infarct volume: effectively reduced infarct volume
CIRI mice [2]; TJ-5 15 mg/kg i.v. after 1 h ischemia
  apoptosis (TUNEL) in whole brain and ischemic penumbra of the cortex: significantly reduced
CIRI mice [2]; TJ-5 15 mg/kg vs vehicle group
  number of neurons (NeuN) in the injured hemisphere: significantly increased
CIRI mice [2]; TJ-5 15 mg/kg, vs I/R group
  number of Iba-1 positive cells in cortex: significantly decreased
CIRI mice [3]; RT-qPCR
  iNOS (with TNF-α, IL-6, IL-1β) mRNA expression levels in the brain: downregulated
CIRI mice [3]; RT-qPCR and ELISA
  expression of TNF-α, IL-1β, and IL-6 in the brain (mRNA and protein): reduced
[4]; LPS-stimulated BV-2 cells, pretreatment 2 h, LPS 24 h, ELISA
  levels of TNF-α and IL-6 in supernatants: markedly reduced
[4]; pretreatment 2 h before LPS 1 μg/ml, 24 h
  activation (morphology) of LPS-stimulated BV-2 cells: inhibited
[5]
  apoptosis of OGD/R-induced SH-SY5Y cells: significantly reduced apoptosis
